# Experiments:
# Assay in all cases: relative viability (nuclei count vs DMSO), 5 days (fraction); higher = more cells survive
# Serdemetan + Pemetrexed = compound: c1ccc2c(CCNc3ccc(Nc4ccncc4)cc3)c[nH]c2c1 [Serdemetan] + Nc1nc2[nH]cc(CCc3ccc(C(=O)N[C@@H](CCC(=O)O)C(=O)O)cc3)c2c(=O)[nH]1 [Pemetrexed] (partner 0.2 µM)
# Procedure, shortened: (§1)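 Each reported value is a median over duplicate plates. It expresses relative viability: treated-well nuclei count divided by vehicle-well nuclei count. Lung cancer cell lines in 1536-well plates were dosed by pin tool a day after seeding, alone with one drug or with a fixed anchor-drug dose plus five library-drug doses (not always all listed) in √10 steps, and nuclei were counted after 5 days.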
# Selisistat + Alpelisib = compound: C1CC(C2=C(C1)C3=C(N2)C=CC(=C3)Cl)C(=O)N [Selisistat] + Cc1nc(NC(=O)N2CCC[C@H]2C(N)=O)sc1-c1ccnc(C(C)(C)C(F)(F)F)c1 [Alpelisib] (partner 2 µM)
# Procedure, shortened: as §1
# Selisistat = compound: C1CC(C2=C(C1)C3=C(N2)C=CC(=C3)Cl)C(=O)N [Selisistat]
# Procedure, shortened: (§2)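 In 1536-well plates, lung cancer cell lines rested overnight at 37 °C before five library-drug doses (not always all listed), √10 apart, were pinned onto vehicle-anchored plates. Nuclei were counted with MetaXpress from 4× Hoechst images taken after 5 days without medium change. Viability compares treated-well with vehicle-well nuclei as a median over plates, and plates needed control CV below 25% plus at least one doubling to pass.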
# Serdemetan = compound: c1ccc2c(CCNc3ccc(Nc4ccncc4)cc3)c[nH]c2c1 [Serdemetan]
# Procedure, shortened: as §2
Cell Line,relative viability (Serdemetan + Pemetrexed; first compound 0.04 µM),relative viability (Serdemetan + Pemetrexed; first compound 0.1265 µM),relative viability (Serdemetan + Pemetrexed; first compound 0.4 µM),relative viability (Serdemetan + Pemetrexed; first compound 1.265 µM),relative viability (Serdemetan + Pemetrexed; first compound 4 µM),relative viability (Selisistat + Alpelisib; first compound 0.4 µM),relative viability (Selisistat + Alpelisib; first compound 1.265 µM),relative viability (Selisistat + Alpelisib; first compound 4 µM),relative viability (Selisistat + Alpelisib; first compound 12.65 µM),relative viability (Selisistat + Alpelisib; first compound 40 µM),relative viability (Selisistat; 0.4 µM),relative viability (Selisistat; 1.265 µM),relative viability (Selisistat; 4 µM),relative viability (Selisistat; 12.65 µM),relative viability (Selisistat; 40 µM),relative viability (Serdemetan; 0.04 µM),relative viability (Serdemetan; 0.1265 µM),relative viability (Serdemetan; 0.4 µM),relative viability (Serdemetan; 1.265 µM),relative viability (Serdemetan; 4 µM)
LCLC-103H,0.447,0.49,0.481,0.386,0.454,1.03,0.963,0.99,0.92,0.94,1.06,1.05,0.819,0.947,0.988,0.993,1.01,0.995,0.877,1.04
LK-2,0.261,0.206,0.225,0.265,0.241,1.05,0.968,0.981,0.989,1.01,0.963,0.891,1,0.913,1.02,0.999,1.02,1.01,0.848,0.887
LOU-NH91,0.394,0.383,,,0.419,0.71,0.681,0.619,0.71,0.723,1.05,0.938,0.884,0.966,0.973,1.02,0.946,0.694,0.783,0.999
LU99A,0.177,0.182,0.345,0.15,0.16,0.538,0.553,0.565,0.505,0.514,1.09,0.992,0.987,0.874,1.01,1.01,0.911,0.903,0.52,0.427
LXF-289,0.894,0.989,0.86,0.76,0.795,1.13,1.04,0.989,1,0.984,1.05,1.03,0.867,0.949,1.07,1.02,0.996,0.933,0.84,0.885
NCI-H23,0.649,0.789,0.722,,0.763,0.811,0.871,,0.662,0.688,0.989,0.941,,0.906,1.08,0.972,1.17,1.11,0.817,1.04
NCI-H322M,0.576,0.583,0.622,0.645,0.628,0.932,0.934,,0.734,0.819,0.98,1.01,,0.994,1.01,0.9,1,0.901,0.791,0.874
NCI-H358,0.173,0.155,0.18,0.148,0.163,0.865,0.942,,0.932,0.912,0.989,0.925,,1.06,0.976,0.897,0.905,0.901,0.81,0.798
NCI-H441,0.262,0.293,0.257,0.202,0.225,0.804,0.64,,0.691,0.707,1.22,1.11,0.774,0.955,1.01,0.981,1.06,1.06,0.815,0.78
NCI-H460,0.0612,0.0565,0.0655,0.0326,0.064,0.517,0.54,,0.403,0.35,0.986,0.961,0.933,0.968,1.03,0.936,0.962,0.926,0.77,0.316
NCI-H520,0.712,0.68,0.753,0.674,0.542,0.762,0.736,1.07,0.957,0.73,0.978,0.939,0.995,0.937,0.877,0.929,0.977,0.951,0.633,0.856
NCI-H596,0.45,0.486,0.515,0.463,0.492,0.587,0.482,0.42,0.502,0.482,1.08,0.994,0.849,1.03,0.983,1.03,0.981,0.989,0.76,0.768
NCI-H647,0.164,0.172,0.175,0.179,0.137,1.1,1.03,,1.09,1.31,0.958,0.964,0.826,0.959,1.03,0.905,0.964,0.964,0.819,0.655
NCI-H650,0.895,0.903,0.992,0.812,0.87,1.38,,1.47,1.06,1.15,0.948,0.868,1.08,0.886,1.06,0.896,0.889,0.934,0.878,0.764
NCI-H661,0.968,0.902,0.877,0.786,0.806,0.766,0.675,0.555,0.508,0.546,1.02,1,1,0.901,0.906,0.974,0.977,1.01,0.815,0.94
NCI-H838,0.232,0.263,0.249,0.209,0.235,1.11,0.971,0.912,1.1,0.954,1.03,0.958,0.863,0.96,0.985,0.959,0.976,0.98,0.92,1.14
NCI-H1355,1.07,1.02,0.949,1.05,0.954,0.936,0.874,,0.862,1.05,1.02,0.987,0.832,0.97,1.03,0.99,1.05,0.907,0.936,0.918

Cell Line,relative viability (Serdemetan + Pemetrexed; first compound 0.04 µM),relative viability (Serdemetan + Pemetrexed; first compound 0.1265 µM),relative viability (Serdemetan + Pemetrexed; first compound 0.4 µM),relative viability (Serdemetan + Pemetrexed; first compound 1.265 µM),relative viability (Serdemetan + Pemetrexed; first compound 4 µM),relative viability (Selisistat + Alpelisib; first compound 0.4 µM),relative viability (Selisistat + Alpelisib; first compound 1.265 µM),relative viability (Selisistat + Alpelisib; first compound 4 µM),relative viability (Selisistat + Alpelisib; first compound 12.65 µM),relative viability (Selisistat + Alpelisib; first compound 40 µM),relative viability (Selisistat; 0.4 µM),relative viability (Selisistat; 1.265 µM),relative viability (Selisistat; 4 µM),relative viability (Selisistat; 12.65 µM),relative viability (Selisistat; 40 µM),relative viability (Serdemetan; 0.04 µM),relative viability (Serdemetan; 0.1265 µM),relative viability (Serdemetan; 0.4 µM),relative viability (Serdemetan; 1.265 µM),relative viability (Serdemetan; 4 µM)
NCI-H1395,0.853,0.925,0.886,0.705,0.518,1.07,1.01,0.977,0.864,0.996,1.02,0.883,0.701,0.863,0.9,0.869,1.02,0.927,0.804,0.61
NCI-H1437,0.287,0.327,0.316,0.264,0.252,1.03,0.987,0.787,0.981,0.919,0.945,0.974,0.805,0.933,0.855,0.905,0.994,0.98,0.928,0.799
NCI-H1563,0.827,0.641,0.627,0.393,0.602,0.834,0.889,0.853,0.778,0.773,0.972,0.886,0.906,0.865,0.902,0.866,0.849,0.8,0.622,0.744
NCI-H1651,0.582,0.388,0.505,0.443,0.323,0.945,0.905,0.944,0.894,1.01,0.995,0.958,0.893,0.924,0.949,0.847,0.899,0.832,0.507,0.399
NCI-H1666,0.795,0.87,0.786,,0.675,1.06,0.978,0.946,0.847,0.748,1.06,0.933,0.877,1.04,0.966,0.985,0.946,0.934,0.634,0.781
NCI-H1734,0.44,0.396,0.405,0.171,0.14,0.744,0.621,0.697,0.739,0.706,1.02,0.942,0.921,1.08,1.03,0.854,0.455,0.821,0.171,0.263
NCI-H1755,0.575,0.4,0.539,0.512,0.418,1.03,0.958,0.94,0.956,0.935,1.08,1.1,0.977,1.01,1.08,1,0.975,0.959,0.775,0.763
NCI-H1792,0.74,0.88,0.761,0.38,0.404,0.696,0.603,,0.685,0.693,0.927,1.18,,0.862,0.855,0.934,0.674,0.848,0.593,0.62
NCI-H1793,0.864,0.831,0.616,0.419,0.431,0.859,0.625,,0.958,0.834,0.968,0.846,,0.956,0.942,1.03,0.873,0.562,0.471,0.572
NCI-H1915,0.52,0.517,0.493,0.491,0.489,1.08,1.03,1.09,1.05,1.04,0.992,1.03,0.795,0.963,1,1,1.02,0.996,0.819,0.948
NCI-H1944,0.581,0.599,0.741,0.469,0.476,0.92,0.779,,0.729,0.823,1.11,0.92,,0.858,0.975,0.95,0.918,0.858,0.469,0.738
NCI-H1975,0.279,0.3,0.312,0.309,0.295,0.656,0.553,0.588,0.604,0.579,0.952,0.839,0.763,0.825,0.836,0.934,0.978,0.919,0.937,0.993
NCI-H1993,0.577,0.581,0.591,0.589,0.546,0.575,0.67,,0.775,0.721,0.911,0.898,,1.01,1.04,0.977,0.995,0.699,0.831,0.89
NCI-H2009,1.03,0.89,1.1,0.895,0.892,1.22,1.1,1.25,0.835,1.12,1.01,1.03,0.772,0.933,0.975,0.97,0.967,1,0.776,0.885
NCI-H2023,0.213,0.223,0.227,0.206,0.217,0.594,0.52,0.608,0.59,0.592,0.952,0.966,0.828,0.876,0.934,0.884,1.09,0.932,0.424,0.345
NCI-H2085,0.91,0.818,0.773,0.798,0.642,1.04,0.983,0.968,1.06,0.919,1.11,0.991,0.858,0.965,1.05,0.964,0.968,0.897,0.844,0.744
